Assay results as given in patent US6423734B1, “Method of preventing cancer” (The Procter & Gamble Company, priority 1999, dated 2002).
“And” between values parts separate entries of the source, which are not always exact repeats. Identical values can stand only once.

Test system: C57BL/6J-Apc^Min mice
Test: Chemopreventive activity in Apc^Min mouse model (intestinal tumor number)
Conditions: for Tumor # ±S.D.: avg. age 118 days
Experimental: In both studies,—Carbendazim was administered orally at 1000 mg/kg, 1500 mg/kg, and 2000 mg/kg on a twice weekly to end schedule. In order to provide a positive control for the Apc^Min mouse study, Sulindac was administered ad libitum in the drinking water at 85 mg/l. Gemcitabine at 80 mg/kg, i.p., served as the positive control in the MiaPaCa study.
Female C57BL/6J-Apc^Min mice were obtained from The Jackson Laboratory at 4-5 weeks of age. The following day (Day 1), drug treatment begins. The Min (Multiple intestinal neoplasia) mouse is a strain with a mutated murine Apc (adenomatous polyposis coli) gene, which leads to the development of multiple intestinal polyps. This development is time and diet dependent, with 100% of the mice which ingest a high fat diet forming adenomas beginning around 45 days of age. These mice develop in excess of 30 adenomas throughout the intestinal tract during their 120 day life span and are therefore an ideal model for the evaluation of potential chemopreventive agents.
The mean survival times of all groups were calculated, and results are expressed as mean survival of treated mice/mean survival of control mice (T/C)×100%. A T/C value of 150 means that the mice in the treated group lived 50% longer than those of the control group; this is sometimes referred to as the increase in life span, or ILS value.
Statistics were performned on the data using primarily the log rank p-value test.

SMILES: COC(=O)Nc1nc2ccccc2[nH]1 [Carbendazim, 2-methoxycarbonylamino-benzimidazole]
- Tumor # ±S.D. (1000 mg/kg p.o. 2× weekly to end, control 31.70 ± 18.49, 1000 mg/kg): 24.7 and 24.71 ± 7.8
- # of non-specific Death (1000 mg/kg p.o. 2× weekly to end, n 10): 3
- # of non-specific Death (1500 mg/kg p.o. 2× weekly to end, n 10): 2
- Tumor # ±S.D. (2000 mg/kg p.o. 2× weekly to end, control 31.70 ± 18.49, 2000 mg/kg): 19.1 and 19.17 ± 7.36
- # of non-specific Death (2000 mg/kg p.o. 2× weekly to end, n 9): 3

SMILES: CC1=C(CC(=O)O)c2cc(F)ccc2/C1=C\c1ccc([S+](C)[O-])cc1 (stereo not drawn) [Sulindac, reference compound]
- # of non-specific Death (0.85 mg/kg p.o. ad libitum/H20, n 9): 0
